Key:
MCAO rats [1] = experiment: brain water content (dry/wet weight) in MCAO rats; assay type: in vivo, Sprague–Dawley rats; settings: 48 h reperfusion, model 83.18% ± 0.71%
Procedure: (§1) Rats were randomly divided into five groups: Sham group (n = 24), rats received sham operation; MCAO model group (n = 30); SYS18 low‐dose group (7.5 mg/kg, n = 30); SYS18 high‐dose group (15 mg/kg, n = 30); and Positive control group rats were intraperitoneally injected with edaravone (15 mg/kg, n = 30). The tested compound was dissolved in 20% polyoxyethylene castor oil and was administered 0.5 h before operation and 6, 12, 24, and 36 h after reperfusion. The measurements were carried out 48 h after the operation. Ten animals in each group were used to measure brain water content, and 10 animals in each group were used to detect Evans blue content in brain tissue. Ten animals in each group were used for determination of biochemical indicators and pathological observations and WB experiments.
The brain water content was evaluated by measuring difference between the dry and wet weights of brains. Briefly, after rats were sacrificed after 48 h of reperfusion, the brains were measured immediately to obtain the wet weights. Then, the brains were drying in a constant temperature oven at 100°C for 24 h, followed by measurements to obtain the dry weights. Brain water content was calculated according to the following formula, brain water content = 100% × (wet weight − dry weight)/wet weight.

IL‐1β = experiment: serum IL-1β in MCAO rats (ELISA); assay type: in vivo, Sprague–Dawley rats; settings: 15 mg/kg, 48 h, p < 0.05
Procedure: as §1
(§2) Blood sample was collected at 48 h after MCAO. After centrifugation at 4°C × 12,000 g for 10 min, the clear supernatant was stored at −80°C. The components of SOD, MDA, TNF‐α, and IL‐1β in the blood samples were measured according to the instructions of the assay kits.

MCAO rats [2] = experiment: neurological score (Zea-Longa) in MCAO rats; assay type: in vivo, Sprague–Dawley rats; settings: 48 h after surgery
Excerpt: (§3) C57BL/6 mice were randomly assigned to treatment groups by body weight. Operator blind to treatment status of animals. After the mice were anesthetized, a midline cervical incision was made. The left common carotid artery and external carotid artery were isolated and ligated. Arterial clamps were placed at the preparation line and distal end of the internal carotid artery. An incision was made at the bifurcation of the common carotid artery. 4–0 nylon line was inserted to a depth of 17–20 mm. The nylon line entered the internal carotid artery; then, it entered the skull to the anterior cerebral artery and blocked all blood flow sources in the middle cerebral artery. After keeping ischemic for 1 h, the animals were re‐anesthetized and then pulled out the nylon line for about 1 cm to achieve reperfusion for up to 48 h. The wound was disinfected with iodophor, and the skin was sutured. Put them on the electric blanket to maintain the body temperature after the completion of surgery; then, they were returned to cages upon recovery. For the sham group, except that no nylon line is inserted, other steps are the same as above. Sham group and model group were given 20% polyoxyethylene castor oil. Subsequently, the animals were sacrificed, and the serum and brains were collected for a series of subsequent analyses and studies.
Rats were randomly divided into five groups: Sham group (n = 24), rats received sham operation; MCAO model group (n = 30); SYS18 low‐dose group (7.5 mg/kg, n = 30); SYS18 high‐dose group (15 mg/kg, n = 30); and Positive control group rats were intraperitoneally injected with edaravone (15 mg/kg, n = 30). […]
According to Zea‐Longa 4‐point scoring criteria, the animals were scored for neurological function at 48 h after surgery. […] And the degree of each animal model was scored as follows: 0 point, no symptoms of nerve injury; 1 point, inability to fully extend the forepaw; 2 points, circling laterally; 3 points, tip to the opposite side; 4 points, inability to walk spontaneously and loss of consciousness. […]

SOD = experiment: serum SOD in MCAO rats (kit); assay type: in vivo, Sprague–Dawley rats; settings: 15 mg/kg, 48 h
Procedure: as §1, §2

MCAO rats [3] = experiment: blood–brain barrier permeability (Evans blue content in brain) in MCAO rats; assay type: in vivo, Sprague–Dawley rats; settings: 48 h
Procedure: as §1
The integrity of the BBB was investigated using Evans blue (EB). Forty‐six hours after reperfusion, rats were injected with EB (4% saline, 4 mL/kg) via the tail vein. Two hours later, rats were anesthetized and perfused with saline through the left ventricle until colorless perfusate. After hydrangea and brainstem were removed, the brains were collected and homogenized. Evans blue was extracted from the brain with N,N‐dimethylformamide. After centrifugation at 3700 rpm for 15 min, the absorbance of supernatant was detected at 620 nm wavelength.

TNF‐α = experiment: serum TNF-α in MCAO rats (ELISA); assay type: in vivo, Sprague–Dawley rats; settings: 15 mg/kg, 48 h, p < 0.05
Procedure: as §1, §2

HS = experiment: glycocalyx component HS in serum of MCAO rats (ELISA); assay type: in vivo, Sprague–Dawley rats; settings: SYS18 high dose 15 mg/kg, 48 h, p < 0.05
Procedure: as §1
(§4) Blood and brain sample were collected at 48 h after MCAO. After centrifugation at 4°C × 12,000 g for 10 min, the clear supernatant was stored at −80°C. Their concentrations of syndecan‐1, HS, and heparanase (HPSE) were determined using an ELISA kit. […] Substrates A and B were added, and the substrate was catalyzed by HRP to produce a product, which eventually converted under the action of a stop solution, and the absorbance (OD value) was measured at a wavelength of 450 nm on a microplate reader.

MDA = experiment: serum MDA in MCAO rats (kit); assay type: in vivo, Sprague–Dawley rats; settings: 15 mg/kg (high dose), 48 h, p < 0.05
Procedure: as §1, §2

MCAO mice = experiment: brain edema volume by T2-weighted MRI in MCAO mice; assay type: in vivo, C57BL/6 mice; settings: SYS18 30 mg/kg twice a day, about 48 h after MCAO, model 36.64% ± 2.69%, p < 0.0001
Excerpt: as §3
Serial brain images were acquired approximately 48 h after MCAO. […]

[4] = blood–brain distribution and PK of SYS18 in rats after intraperitoneal injection; settings: for Kp: brain/plasma
Procedure: The blood samples were anticoagulated with EDTA and stored at 4°C, then centrifuged at 4°C at 4000 r/min for 10 min. The plasma concentrations were detected simultaneously (plasma stored at −80°C refrigerator). The whole brain was stored at −80°C for later detection and then uniformly prepared into brain tissue homogenate to detect drug concentration. Use Excel to analyze the drug concentration—time data pharmacokinetic parameters through atrioventricular method.

claudin‐5 = experiment: immunofluorescence of claudin-5 in brain of MCAO rats; assay type: in vivo, Sprague–Dawley rats; settings: high-dose SYS18 (15 mg/kg)
Procedure: as §1
(§5) Immunofluorescence testing selects the same area as HE staining to observe and analyze the fluorescence level in the field of view. After deparaffinization of the paraffin sections to water, the tissue sections were subjected to antigen retrieval in a microwave oven in a retrieval box filled with citric acid antigen retrieval buffer (pH 6.0), and the sections were incubated overnight at 4°C with rabbit monoclonal anti‐MMP‐9 (1:100), rabbit polyclonal anti‐claudin‐5 (1:200). […]

heparanase (HPSE) = heparanase (HPSE) in brain of MCAO rats (ELISA); assay type: in vivo, Sprague–Dawley rats; settings: SYS18 high dose 15 mg/kg, 48 h, p < 0.05
Procedure: as §1, §4

MCAO rats [5] = experiment: hematoxylin and eosin staining of brain tissue in MCAO rats; assay type: in vivo, Sprague–Dawley rats; settings: high-dose SYS18 (15 mg/kg), 48 h ischemia–reperfusion
Procedure: as §1
Hematoxylin and eosin staining were used to observe the effect of SYS18 on pathological changes in ischemia–reperfusion brain tissue. After 48 h of ischemia–reperfusion, the rats were sacrificed, and the brains were immediately fixed with 4% paraformaldehyde after transcranial perfusion with ice‐cold saline (The damaged brain is located in the ischemic penumbra of the right brain. Through HE staining and pathological sectioning under a microscope, the area where neuronal cells are morphologically intact and have not yet degenerated or necrotic is determined as the ischemic penumbra). […]

MMP‐9 = experiment: immunofluorescence of MMP-9 in brain of MCAO rats; assay type: in vivo, Sprague–Dawley rats; settings: high-dose SYS18 (15 mg/kg)
Procedure: as §1, §5

syndecan‐1 = experiment: glycocalyx component syndecan-1 in MCAO rats (ELISA); assay type: in vivo, Sprague–Dawley rats; settings: SYS18 high dose 15 mg/kg, 48 h, p < 0.05
Procedure: as §1, §4

[6] = tested on: mice model of increased peritoneal capillary permeability; experiment: acetic acid-induced increased peritoneal capillary permeability model (Evans blue in peritoneal lavage); assay type: in vivo, Kunming mice
Procedure: Sixty Kunming mice were randomly divided into control group, SYS18 low, medium, and high‐dose groups (20, 40, and 80 mg/kg, respectively), and positive control group was given celecoxib (40 mg/kg), 10 mice in each group. The mice in each group were administrated with 0.2 mL/10 g once a day for three consecutive days.
One hour after the last administration, 2% Evans blue saline 0.1 mL/10 g was injected via the tail vein, and 0.6% acetic acid 0.2 mL/10 g was injected intraperitoneally immediately. Twenty minutes later, the mice were killed, the abdominal cavity was cut open, and the abdominal cavity was washed several times with 5 mL normal saline to collect washing fluid. The samples were centrifuged at 4700 r/min for 5 min, and the lateral absorbance at the wavelength of 620 nm was measured with a UV spectrophotometer to compare the differences between groups.
Acetic acid‐induced increased peritoneal capillary permeability in mice is a classic model of peripheral inflammation. Anti‐inflammatory effects of SYS18 were evaluated by using an increased peritoneal capillary permeability assay. After intravenous injection of Evans blue saline solution, intraperitoneal injection of acetic acid was used to increase peritoneal capillary permeability in mice. The peritoneal capillary permeability of mice in each group was compared by collecting peritoneal lavage fluid and measuring abdominal Evans blue absorbance.

[7] = 15 mg/kg (SYS18 high dose; edaravone)
[8] = 15 mg/kg (SYS18 high dose; edaravone i.p.), model 2.42 ± 0.84, p < 0.01
[9] = 15 mg/kg (SYS18 high dose; or edaravone positive control)

SMILES: CC1=NN(c2ccccc2)C(=O)C1 [edaravone, reference compound]
- brain water content (MCAO rats [1]; [7]): 81.13% ± 1.98%
- IL-1β in serum vs model group (IL‐1β): significantly decreased
- neurological score (MCAO rats [2]; [8]): 1.50 ± 0.61
- SOD level in serum vs model group (SOD): could improve SOD level in serum
- Evans blue content in brain tissue (MCAO rats [3]; [9]): 6.20 ± 2.76 µg/g
- TNF-α in serum vs model group (TNF‐α): significantly decreased

SMILES: COc1ccc(-c2nc(-c3ccccc3O)n(-c3ccc(S(N)(=O)=O)cc3)n2)c(O)c1 [SYS18, 4‐(3‐(2‐hydroxy‐4‐methoxyphenyl)‐5‐(2‐hydroxyphenyl)‐1H‐1,2,4‐triazol‐1‐yl) benzenesulfonamide]
- brain water content (MCAO rats [1]; 7.5 mg/kg (low dose), p > 0.05): 81.98% ± 1.18%
- brain water content (MCAO rats [1]; [7]): 80.62% ± 1.73%
- IL-1β in serum vs model group (IL‐1β): significantly decreased
- neurological score (MCAO rats [2]; 7.5 mg/kg (low dose), model 2.42 ± 0.84, p > 0.05): 1.95 ± 0.74
- neurological score (MCAO rats [2]; [8]): 1.52 ± 0.68
- HS in serum vs model group (HS): decreased
- MDA levels in serum vs model group (MDA): reduced MDA levels in serum significantly
- brain edema volume (T2-MRI) (MCAO mice): 11.01% ± 5.32%
- Cmax ([4]; SD, rat, brain, ip, 15 mg/kg): 464 ng/g
- MRT ([4]; SD, rat, brain, ip, 15 mg/kg): 7.15 h
- k el ([4]; SD, rat, brain, ip, 15 mg/kg): 3.75e-05 s⁻¹
- Kp ([4]; SD, rat, ip, 15 mg/kg, B/P (ratio of total drug concentration in brain to plasma), rats, 15 mg/kg i.p., at 1–2 h): > 0.2
- Kp ([4]; SD, rat, ip, 15 mg/kg, B/P (ratio of total drug concentration in brain to plasma), rats, 15 mg/kg i.p., at 4–6 h): > 0.4
- Kp ([4]; SD, rat, ip, 15 mg/kg, cerebral‐blood ratio of area under the curve (AUC0‐t), rats, 15 mg/kg i.p.): > 0.4
- Tmax ([4]; SD, rat, in vivo, ip, 15 mg/kg): 2 h
- half-life ([4]; SD, rat, in vivo, ip, 15 mg/kg): 5.12 h
- CL/F ([4]; SD, rat, plasma, ip, 15 mg/kg): 16.7 mL/min/kg
- Cmax ([4]; SD, rat, plasma, ip, 15 mg/kg): 1850 ng/mL
- MRT ([4]; SD, rat, plasma, ip, 15 mg/kg): 3.87 h
- Tmax ([4]; SD, rat, plasma, ip, 15 mg/kg): 1 h
- Vd/F ([4]; SD, rat, plasma, ip, 15 mg/kg): 3 L/kg
- half-life ([4]; SD, rat, plasma, ip, 15 mg/kg): 3.17 h
- k el ([4]; SD, rat, plasma, ip, 15 mg/kg): 6.06e-05 s⁻¹
- AUC ([4]; SD, rat, plasma, ip, 15 mg/kg, AUC0‐inf_obs, blood, rats, 15 mg/kg i.p.): 8520 ng·h/mL
- AUC ([4]; SD, rat, plasma, ip, 15 mg/kg, AUC0‐t, blood, rats, 15 mg/kg i.p.): 8440 ng·h/mL
- AUC ([4]; SD, rat, plasma, ip, 15 mg/kg, area under the curve (AUC0‐t), blood, rats): 8440 ng·h/mL
- AUMC0‐inf_obs ([4]; blood, rats, 15 mg/kg i.p.): 32940.745 ng/mg × h^2
- Tlag ([4]; blood, rats, 15 mg/kg i.p.): 0 h
- AUC0‐inf_obs ([4]; brain, rats, 15 mg/kg i.p.): 3700.110 ng·h/mg
- AUC0‐t ([4]; brain, rats, 15 mg/kg i.p.): 3504.387 ng·h/mg
- AUMC0‐inf_obs ([4]; brain, rats, 15 mg/kg i.p.): 26458.752 ng/mg × h^2
- Tlag ([4]; brain, rats, 15 mg/kg i.p.): 0 h
- area under the curve (AUC0‐t) ([4]; brain, rats, i.p.): 3500 ng·h/mg
- fluorescent intensity of claudin-5 vs model group (claudin‐5): fluorescent intensity increased
- SOD level in serum vs model group (SOD): could improve SOD level in serum
- HPSE in brain tissue vs model group (heparanase (HPSE)): decreased
- histological damage of nerve cells in cerebral cortex (HE staining) (MCAO rats [5]): the necrosis of nerve cell in the brain tissue was attenuated
- fluorescent intensity of MMP-9 vs model group (MMP‐9): decreased
- Evans blue content in brain tissue (MCAO rats [3]; 7.5 mg/kg (low dose), p > 0.05 vs model): 7.06 ± 1.58 µg/g
- Evans blue content in brain tissue (MCAO rats [3]; [9]): 5.74 ± 0.54 µg/g
- syndecan-1 in brain tissue vs model group (syndecan‐1): significantly increased
- absorbance of Evans blue in peritoneal lavage fluid vs model group ([6]; SYS18 high dose 80 mg/kg once a day for 3 days): no statistical difference
- absorbance of Evans blue in peritoneal lavage fluid vs model group ([6]; SYS18 low dose 20 mg/kg once a day for 3 days): did not significantly reduce
- concentration of Evans blue in peritoneal lavage fluid vs model group ([6]; SYS18 medium dose 40 mg/kg once a day for 3 days): significantly reduced
- TNF-α in serum vs model group (TNF‐α): significantly decreased

Source: article PMC11537802, “The Neuroprotection of 1,2,4‐Triazole Derivative by Inhibiting Inflammation and Protecting BBB Integrity in Acute Ischemic Stroke” (CNS Neuroscience & Therapeutics, 2024)
